Reference: patent US9957257B2, “Amide compounds as 5-HT4 receptor agonists” (SUVEN LIFE SCIENCES LIMITED, priority 2015, dated 2018)

Assays:
[1] = Rodent brain penetration study; assay type: in vivo, Male Wistar rats; details: male, Wistar, rat, 3 mg/kg, oral (gavage), read-out: Single dose Brain Penetration (Cb/Cp)
Method: Male Wistar rats (225±25 grams) were used as experimental animals. Three animals were housed in each cage. Animals were given water and food ad libitum throughout the experiment and maintained on a 12 hours light/dark cycle. Brain penetration was determined in discrete manner in rats. One day prior to dosing day, male wistar rats (225-250 grams) were acclimatized. After acclimatization the rats were grouped according to their weight. In each group, 3 animals were kept in individual cage and allowed free access to food and water. At each time point (0.50, 1 and 2 hours) n=3 animals were used. The test compounds were suitably preformulated and administered orally at (free base equivalent) 3 mg/kg. Blood samples were removed via, cardiac puncture by using isoflurane anesthesia. The animals were sacrificed to collect brain tissue. Plasma was separated and brain samples were homogenized and stored frozen at −20° C. until analysis. The concentrations of the test compounds in plasma and brain were determined using LC-MS/MS method. The test compounds were quantified in plasma and brain homogenate by qualified LC-MS/MS method using suitable extraction technique. The test compounds were quantified in the calibration range of 1-500 ng/mL in plasma and brain homogenate. Study samples were analyzed using calibration samples in the batch and quality control samples spread across the batch. Extent of brain-plasma ratio was calculated (Cb/Cp).

[2] = Rodent pharmacokinetic study; assay type: in vivo, Male wistar rats; details: male, Wistar, plasma, rat
Method: Male wistar rats (225±25 grams) were used as experimental animals. Three to five animals were housed in each cage. Two days prior to dosing day, male wistar rats (225-250 grams) were anesthetized with isoflurane for surgical placement of jugular vein catheter. Animals were fasted overnight before oral dosing (p.o) and food pellets were allowed 2 hours post dosing, whereas during intravenous dosing food and water were provided as ad libitum. Three rats were dosed with test compounds (3 mg/kg) orally and intravenously (1 mg/kg).
At each time point blood was collected through jugular vein and immediately replenish with an equivalent volume of normal saline from freely moving rats. Collected blood was transferred into a labeled eppendr off containing 10 μL of heparin as anticoagulant. Typically blood samples were collected as following time points: Pre dose, 0.08 (only i.v.), 0.25, 0.5, 1, 2, 4, 6, 8, and 24 hours post dose-(n=3). Blood was centrifuged at 4000 rpm for 10 minutes. Plasma was prepared and stored frozen at −20° C. until analysis. The concentrations of the test compounds were quantified in plasma by qualified LC-MS/MS method using suitable extraction technique. The test compounds were quantified in the calibration range around 2-2000 ng/mL in plasma. Study samples were analyzed using calibration samples in the batch and quality control samples spread across the batch.
Pharmacokinetic parameters Cmax, Tmax, AUCt, T1/2 and Bioavailability were calculated by non-compartmental model using standard non-compartmental model by using WinNonLin 5.0.1 or Phoenix WinNonlin 6.2 version Software package.

[3] = Object recognition task model; assay type: in vivo, Male Wistar rats; details: 0.003 mg/kg, p.o.
Method: The cognition enhancing properties of compounds of this invention were estimated by using this model.
Male Wistar rats (230-280 grams) were used as experimental animals. Four animals were housed in each cage. Animals were kept on 20% food deprivation before one day and given water ad libitum throughout the experiment and maintained on a 12 hours light/dark cycle. Also the rats were habituated to individual arenas for 1 hour in the absence of any objects.
One group of 12 rats received vehicle (1 mL/Kg) orally and another set of animals received compound of the formula (I) either orally or i.p., before one hour of the familiar (T1) and choice trial (T2).
The experiment was carried out in a 50×50×50 cm open field made up of acrylic. In the familiarization phase, (T1), the rats were placed individually in the open field for 3 minutes, in which two identical objects (plastic bottles, 12.5 cm height×5.5 cm diameter) covered in yellow masking tape alone (a1 and a2) were positioned in two adjacent corners, 10 cms from the walls. After 24 hours of the (T1) trial for long-term memory test, the same rats were placed in the same arena as they were placed in T1 trial. Choice phase (T2) rats were allowed to explore the open field for 3 minutes in presence of one familiar object (a3) and one novel object (b) (Amber color glass bottle, 12 cm high and 5 cm in diameter). Familiar objects presented similar textures, colors and sizes. During the T1 and T2 trial, explorations of each object (defined as sniffing, licking, chewing or having moving vibrissae whilst directing the nose towards the object at a distance of less than 1 cm) were recorded separately by stopwatch. Sitting on an object was not regarded as exploratory activity, however, it was rarely observed.
T1 is the total time spent exploring the familiar objects (a1+a2).
T2 is the total time spent exploring the familiar object and novel object (a3+b).
The object recognition test was performed as described by Behaviour Brain Research, 31 (1988), 47-59.

Radial arm maze = assay type: in vivo, rats; details: p.o.
Source text: The cognition enhancing properties of test compounds of this invention were estimated by using this model.
Radial arm maze consists of a central hub of 45 cm diameter. Each arm was of dimension 42.5×15×24 cm. The maze was elevated to a height of 1 m above the ground. The animals were placed on a restricted diet until they reached approximately 85% of their free feeding weight. During this diet restriction period animals were habituated to the novel feed (pellets). Once the rats reached approximately 85% of their free feeding weight, rats were habituated to the maze on the 1st and 2nd day. […] Animals were randomized on day 2. On the subsequent days the treatment was given as per the allotment. Each animal was introduced into the maze individually for a period of 10 minutes. The arms were baited only once and the animal had to learn the rule that repeated arm entries would not be rewarded. The trial ended once the rat had visited 16 arms or 10 minutes were over or all the pellets were eaten. The arm entries were recorded using the software. Once the trial was over the rat was removed and the maze was cleaned using soap water.

- Kp [1]: 1.03 ± 0.02
- AUC(0-t) ([2]; 1 mg/kg, intravenous (bolus)): 158 ± 7 ng·h/mL
- half-life ([2]; 1 mg/kg, intravenous (bolus)): 1.9 h
- bioavailability ([2]; 3 mg/kg oral vs 1 mg/kg intravenous): 68 ± 22%
- AUC(0-t) ([2]; 3 mg/kg, oral (gavage)): 324 ± 105 ng·h/mL
- Cmax ([2]; 3 mg/kg, oral (gavage)): 131 ± 35 ng/mL
- Tmax ([2]; 3 mg/kg, oral (gavage)): 0.42 h
- half-life ([2]; 3 mg/kg, oral (gavage)): 1.6 h
SMILES: Nc1c(Cl)cc(C(=O)NCC2C3CN(CC4CCOCC4)CC23)c2c1CCCO2.O=C(O)C(O)C(O)C(=O)O (stereo not drawn) [Example 3, 5-Amino-6-chloro-N-{[3-(tetrahydro-2H-pyran-4-ylmethyl)-3-azabicyclo[3.1.0]hex-6-yl]methyl}chroman-8-carboxamide L(+)-tartarate]
- Exploration time mean ± S.E.M, Familiar object [3]: 9.9 ± 2.06 s
- Exploration time mean ± S.E.M, Novel object [3]: 17.58 ± 2.24 s
- Inference [3]: Active
- Reversal of Scopolamine Induced amnesia - Effective dose range (Radial arm maze): 0.03 mg/kg, p.o.
